Source: patent US7541156B1, “Method of identifying antinociceptive compounds using protease activated receptor-2” (priority 2000, dated 2009)
No end group written: not given here.

Tests used:
[1] = tested on: cultured adult rat thoracic DRG neurons; test: CGRP release assay in cultured DRG neurons; type: cell-based; conditions: 10 min pretreatment with peptide 10 μM, mean of wells, three experiments
Experimental: Cell Culture. Primary cultures of rat DRG neurons were prepared from male adult Sprague Dawley rats (200-250 gm). Following enzymatic treatment and dissociation, neurons were spun through a percoll cushion (Hofbauer et al. 1998) and were plated at a density of 10,000-20,000 neurons/well of a 48 well tissue culture plate. Cultures were maintained in DME+10% FCS supplemented with penicillin/streptomycin, 150 μM uridine and 50 μM 5-fluoro-2-deoxyuridine (Nguyen et al. 1999). NGF (murine, recombinant, 2.5S; Promega, Madison, Wis.) was used at 50 ng/ml. Neurons were treated for five days before release experiments or Calcium-imaging studies were performed.
CGRP release assay. Immunoreactive calcitonin gene-related peptide (IR-CGRP) release from DRG cultures was performed as described by Hingtgen et al. (1995). Briefly, neuron cultures were washed with Release Buffer (RB) (25 mM Hepes, pH 7.4, 135 mM NaCl, 3.5 mM KCl, 2.5 mM CaCl2, 1 mM MgCl2, 3.3 mM Glucose, 0.1% BSA, 1 μM phosphoamidon), and were incubated for 10 min at 37° C. in RB plus 0.1% ethanol (Capsaicin vehicle) to measure basal CGRP release. Fresh RB containing the appropriate concentration of activating peptide (AcPep) or control peptide (CoPep) was added for an additional 10 minutes. Peptide treatment was followed by a 10 minute incubation with an appropriate dose of Capsaicin or KCl. IR-CGRP released by neurons was measured by ELISA. Activating peptide and control peptide were prepared by standard solid phase synthesis procedures by the UTMB Core Protein Facility.
CGRP Quantification. CGRP was quantified in a standard sandwich ELISA. In brief, 96-well “U” bottom microtiter ELISA plates (Dynex, Chantilly, Va.) were coated with affinity purified polyclonal rabbit antibody to rat CGRP (Peninsula Labs, Belmont, Calif.) at 3 μg/ml in 0.125M borate buffered saline (pH 8.1) (100 μl/well). The plates were incubated overnight at 37° C. The next day, the plates were washed three times with saline containing 0.05% Tween-20. Purified rat CGRP (Peninsula Labs) was used at a previously standardized concentration range of 25-1 ng/ml in a four-fold dilution to generate a standard curve. An equal volume of the sample was added in duplicate to a seventy-five μl/well of Tween-PBS (pH 7.1) and the plates were incubated for two hours on a shaker at room temperature. The plates were washed 3 times with Tween-PBS and 100 μl/well (0.2 mg/ml; 1:500 dilution) of in-house biotinylated, rabbit anti rat CGRP IgG (Peninsula Labs) was applied and incubated for two hours at room temperature. After three washes 150 μl of 1:1000 diluted streptavidine-horseradish peroxidase conjugate (Zymed, San Fransisco, Calif.) was added to each well and the plates were incubated for 90 min at room temperature. One-hundred-fifty μl/well of the substrate ortho-phenylene diamine dihydrochloride (Sigma Chemicals, St. Louis, Mo.) 0.4 mg/ml in citrate buffer (pH 4.9) was added after plates were washed three more times. Forty μl/100 ml of 30% H2O2 was added fresh to the citrate buffer just before adding to the wells to activate the coloring reaction. The reaction was stopped with 5N H2SO4 (50 μl/well) and the plates were read at 490 nm in an automated ELISA reader (Bio-Tek Instruments, Inc., Winooski, VE). The OD values were plotted against the CGRP standard curve and CGRP immunoreactivity was quantified using the appropriate formula and expressed as nanogram/ml.
Statistics. Release data are presented as the mean± standard error of the mean (SEM) of wells from three separate experiments. To compare the effects of activating peptide and control peptide on subsequent evoked release, an overall test based on the analysis of variance was performed (ANOVA). […] Intraductal injection studies were analyzed using a repeated measure ANOVA and individual means were compared using a Newman-Keuls multiple comparison test. Significance levels were set at p<0.05. […]

[2] = tested on: pancreatic afferent neurons / spinal segments T8-T10; test: c-FOS expression in spinal cord segments after pancreatic intraductal injection; type: in vivo, rat; conditions: peptide 100 μM intraductal, followed 30 min later by Capsaicin 0.5 mg/kg; 2.5 hours
Experimental: Intraductal (pancreatic duct) injection. To administer the necessary peptides directly into the rat pancreatic duct we followed a modified protocol, previously described by Kim et al. (1996). In brief, rats were anesthetized i.p. with nembutal sodium (Abbot Laboratories, Chicago, Ill.) (50 mg/kg body weight). The peritoneum was incised to expose the duodenum and the duodenal loop was pulled out. The pancreatic duct entering the duodenum was identified under dissecting microscope and a small niche was made into the duct with a 30-gauge needle. A polyethylene 10 tubing (0.61 mm outer diameter) (Becton Dickinson and Company, Franklin Lakes, N.J.) was guided into the duct and tied to secure its position. The common bile duct was ligated close to the liver to prevent entry of the injected substance into the liver. Similarly the duct was ligated near its entry into the duodenum. The position of the tube into the pancreatic duct was confirmed by freely flowing bile through the tubing. […] Thirty minutes later Capsaicin 0.5 mg/kg (total volume 500 μl) or vehicle (1×PBS, 10% ETOH, 1% Tween) was injected to half of the AcPep or CoPep injected rats. Three rats were included in each treatment group (n=3 for number of experiments). The tubing was carefully removed and bile flow from the liver into the duodenum was re-established. The abdominal cavity was closed with sutures. Rats were sacrificed 2.5 hrs after the initial injection.
C-fos staining. Rats were anesthetized with sodium pentobarbital (50 mg/kg i.p.) and perfused with 200 mls PBS followed by 500 mls ice-cold freshly prepared 4% paraformaldehyde in PBS. Spinal cord (level T5-T13) was removed, post-fixed in 4% paraformaldehyde for 18 hrs at 4° C. and placed in PBS (pH 7.4) containing 30% sucrose for 24 hrs at 4° C. Frozen sections (40 μm) were cut on a cryostat and stored as floating sections in PBS at 4° C. Every third section was stained for c-fos with a rabbit polyclonal serum, 1:1000 dilution, (c-fos, Ab-5, Oncogene Research Products) utilizing manufacturer's protocol. Antibody staining was visualized using a biotinylated secondary antisera and Vectastain ABC peroxidase kit with DAB as substrate. Sections were mounted on Superfrost Plus slides (VWR Scientific, West Chester, Pa.) and dehydrated. The number of c-FOS immunoreactive (IR) neurons were counted in 10 randomly chosen sections per segment under brightfield illumination and then averaged.
Statistics. Release data are presented as the mean± standard error of the mean (SEM) of wells from three separate experiments. […] Intraductal injection studies were analyzed using a repeated measure ANOVA and individual means were compared using a Newman-Keuls multiple comparison test. […]

mouse Par2 = target: T1, mouse Par2 (Mus musculus, UniProt P55086); conditions: expressed in frog oocytes; cited from earlier work
T1 construct: host or cells: frog oocytes
T1 sequence (P55086 26-399): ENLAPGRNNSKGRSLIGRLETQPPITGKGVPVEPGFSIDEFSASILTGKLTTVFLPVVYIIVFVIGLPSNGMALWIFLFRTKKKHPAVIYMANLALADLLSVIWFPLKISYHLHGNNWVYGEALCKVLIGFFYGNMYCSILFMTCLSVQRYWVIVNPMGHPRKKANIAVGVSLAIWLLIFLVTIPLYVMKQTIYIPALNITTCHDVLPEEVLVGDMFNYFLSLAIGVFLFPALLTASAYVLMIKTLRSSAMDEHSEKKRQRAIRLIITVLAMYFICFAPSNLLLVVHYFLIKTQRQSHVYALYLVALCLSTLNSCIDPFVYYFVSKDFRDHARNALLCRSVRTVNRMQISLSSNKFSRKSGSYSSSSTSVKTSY

[3] = target: T2, protease activated receptor-2 (PAR-2) of adult rat thoracic dorsal root ganglion neurons (rat, UniProt Q63645 37-397); test: cell-based or functional assay
T2 sequence (looked up): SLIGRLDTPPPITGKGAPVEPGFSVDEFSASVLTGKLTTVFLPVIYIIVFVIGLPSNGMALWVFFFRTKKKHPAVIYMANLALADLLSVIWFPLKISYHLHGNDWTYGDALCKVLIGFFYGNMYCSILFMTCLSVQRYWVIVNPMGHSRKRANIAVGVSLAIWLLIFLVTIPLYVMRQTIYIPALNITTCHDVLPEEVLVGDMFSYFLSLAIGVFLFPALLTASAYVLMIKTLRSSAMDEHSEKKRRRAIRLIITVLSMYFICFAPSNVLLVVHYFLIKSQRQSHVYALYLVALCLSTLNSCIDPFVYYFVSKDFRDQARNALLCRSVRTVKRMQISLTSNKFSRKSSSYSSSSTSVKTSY

RLGILS-amide (RLGILS-NH2) [CoPep]
CGRP release induced by Capsaicin (50 nM) ([1]; then Capsaicin 50 nM for 10 min in presence of peptide): 4.77 ng/mL | CGRP release induced by KCl (70 mM) ([1]; then KCl 70 mM for 10 min in presence of peptide): 1.8 ng/mL | Capsaicin-evoked c-FOS expression in segments T8-T10 [2]: as strong a stimulant as AcPep alone

thrombin
concentration without receptor activation (mouse Par2): > 100 nM

B1: PAR-2 activating peptide (AcPep) (peptide)
peptide: SLIGRL
augmentation of Capsaicin-evoked CGRP release (multiple of the basal release), AcPep 10 µM [3]: ~2 fold | augmentation of KCl-evoked CGRP release (multiple of the basal release), AcPep 10 µM [3]: 1.5 fold
